By IC50 is commonly meant the concentration needed to halve the response being measured.

The target of the assay is SARS-CoV-2 M^PRO (Severe acute respiratory syndrome coronavirus 2, UniProt P0DTD1). Nature of the assay: biochemical. In kind it is biochemical. To be noted: In vitro potency data; 30 min pre-incubation, 25 nM M^pro, 25 µM substrate; read-out: IC50.
As to `O=C(NC1CCC(F)(F)CC1)[C@@H](c1cncnc1)N(C(=O)CCl)c1ccc(-c2ccns2)cc1`, the IC50 is 0.06 µM. Regarding `O=C(NC1CCC(F)(F)CC1)[C@H](c1cncnc1)N(C(=O)CCl)c1ccc(-c2ccns2)cc1`, the IC50 is 0.19 µM.

Consider `N#Cc1cc(OC(F)(F)F)ccc1N(C(=O)C(F)Cl)C(C(=O)NC1CCC(F)(F)CC1)c1cncnc1` (mixture of isomers) [INSCoV-517C, 2-Chloro-N-(2-cyano-4-(trifluoromethoxy)phenyl)-N-(2-((4,4-difluorocyclohexyl)amino)-2-oxo-1-(pyrimidin-5-yl)ethyl)-2-fluoroacetamide], for which the IC50 was found to be 0.11 µM.

For the compound `O=C(NC1CCC(F)(F)CC1)[C@H](c1cnccn1)N(C(=O)CCl)c1ccc(-c2ccno2)cc1` (racemic) [INSCoV-601H, 2-Chloro-N-(2-((4,4-difluorocyclohexyl)amino)-2-oxo-1-(pyrazin-2-yl)ethyl)-N-(4-(isoxazol-5-yl)phenyl)acetamide], the IC50 amounted to 0.1 µM.

Turning to `O=C(NC1CCC(F)(F)CC1)C(c1ccnnc1)N(C(=O)CCl)c1ccc(-c2ccns2)cc1` (racemic) [INSCoV-601J], the IC50 was 0.12 µM. The figure for `O=C(N[C@H]1CCOC1)C(c1cnccn1)N(C(=O)CCl)c1ccc(-c2ccno2)cc1` (mixture of isomers) [INSCoV-601Q, 2-Chloro-N-(4-(isoxazol-5-yl)phenyl)-N-(2-oxo-1-(pyrazin-2-yl)-2-(((S)-tetrahydrofuran-3-yl)amino)ethyl)acetamid] is 0.15 µM. Turning to `CC(C)(C)c1ccc(N(C(=O)CCl)C(C(=O)NC2CCCCC2)c2cccnc2)cc1` (single isomer, unassigned) [INSCoV-110A(1), 2-(4-tert-butyl-N-(2-chloroacetyl)anilino)-N-cyclohexyl-2-(3-pyridyl)acetamide], the IC50 is 1.98 µM. Then `CC(C)(C)c1ccc(N(C(=O)CCl)C(C(=O)NC2CCCCC2)c2cccnc2)cc1` (single isomer, unassigned) [INSCoV-110A(2), 2-(4-tert-butyl-N-(2-chloroacetyl)anilino)-N-cyclohexyl-2-(3-pyridyl)acetamide], with 2.15 µM; and `N#Cc1cc(OC(F)(F)F)ccc1N(C(=O)CCl)C(C(=O)NC1CCC(F)(F)CC1)c1cncnc1` (single isomer, unassigned) [INSCoV-517A(1A), 2-Chloro-N-(2-cyano-4-(trifluoromethoxy)phenyl)-N-(2-((4,4-difluorocyclohexyl)amino)-2-oxo-1-(pyrimidin-5-yl)ethyl)acetamide], with 0.03 µM; and `N#Cc1cc(OC(F)(F)F)ccc1N(C(=O)CCl)C(C(=O)NC1CCC(F)(F)CC1)c1cncnc1` (single isomer, unassigned) [INSCoV-517A(1B), 2-Chloro-N-(2-cyano-4-(trifluoromethoxy)phenyl)-N-(2-((4,4-difluorocyclohexyl)amino)-2-oxo-1-(pyrimidin-5-yl)ethyl)acetamide], with 3.25 µM. For the compound `N#Cc1cc(OC(F)(F)F)ccc1N(C(=O)C(F)Cl)C(C(=O)NC1CCC(F)(F)CC1)c1cncnc1` (single isomer, unassigned) [INSCoV-517C(1), 2-Chloro-N-(2-cyano-4-(trifluoromethoxy)phenyl)-N-(2-((4,4-difluorocyclohexyl)amino)-2-oxo-1-(pyrimidin-5-yl)ethyl)-2-fluoroacetamide], the IC50 is 11.2 µM.

For the compound `N#Cc1cc(OC(F)(F)F)ccc1N(C(=O)[C@H](F)Cl)[C@@H](C(=O)NC1CCC(F)(F)CC1)c1cncnc1` (single isomer, unassigned) [INSCoV-517C(2), 2-Chloro-N-(2-cyano-4-(trifluoromethoxy)phenyl)-N-(2-((4,4-difluorocyclohexyl)amino)-2-oxo-1-(pyrimidin-5-yl)ethyl)-2-fluoroacetamide], the IC50 turned out to be 11.4 µM.

As for `N#Cc1cc(OC(F)(F)F)ccc1N(C(=O)C(F)Cl)C(C(=O)NC1CCC(F)(F)CC1)c1cncnc1` (single isomer, unassigned) [INSCoV-517C(3), 2-Chloro-N-(2-cyano-4-(trifluoromethoxy)phenyl)-N-(2-((4,4-difluorocyclohexyl)amino)-2-oxo-1-(pyrimidin-5-yl)ethyl)-2-fluoroacetamide], the concentration for half-maximal inhibition (IC50) was found to be 0.07 µM. The figure for `N#Cc1cc(OC(F)(F)F)ccc1N(C(=O)[C@H](F)Cl)[C@@H](C(=O)NC1CCC(F)(F)CC1)c1cncnc1` (single isomer, unassigned) [INSCoV-517C(4), 2-Chloro-N-(2-cyano-4-(trifluoromethoxy)phenyl)-N-(2-((4,4-difluorocyclohexyl)amino)-2-oxo-1-(pyrimidin-5-yl)ethyl)-2-fluoroacetamide] is above 25 µM; for `O=C(NC1CCC(F)(F)CC1)C(c1cncnc1)N(C(=O)CCl)c1ccc(-c2ccno2)cc1` (single isomer, unassigned) [INSCoV-600J(2), 2-Chloro-N-(2-((4,4-difluorocyclohexyl)amino)-2-oxo-1-(pyrimidin-5-yl)ethyl)-N-(4-(isoxazol-5-yl)phenyl)acetamide] it is 0.53 µM. In the case of `O=C(NC1CCC(F)(F)CC1)C(c1cncnc1)N(C(=O)CCl)c1ccc(-c2cncs2)cc1` (single isomer, unassigned) [INSCoV-600K(2), 2-Chloro-N-(2-((4,4-difluorocyclohexyl)amino)-2-oxo-1-(pyrimidin-5-yl)ethyl)-N-(4-(thiazol-5-yl)phenyl)acetamide], the IC50 worked out at 0.43 µM. Take `O=C(NC1CCC(F)(F)CC1)C(c1cncnc1)N(C(=O)[C@@H]1CO1)c1ccc(-c2cnco2)cc1` (single isomer, unassigned) [INSCoV-600R(2A)]: the IC50 was 2.93 µM.

`O=C(NC1CCC(F)(F)CC1)C(c1cnccn1)N(C(=O)CCl)c1ccc(-c2cncs2)cc1` (single isomer, unassigned) [INSCoV-601G(1), 2-Chloro-N-(2-((4,4-difluorocyclohexyl)amino)-2-oxo-1-(pyrazin-2-yl)ethyl)-N-(4-(thiazol-5-yl)phenyl)acetamide]: the IC50 was 0.06 µM. The figure for `O=C(NC1CCC(F)(F)CC1)C(c1cnccn1)N(C(=O)CCl)c1ccc(-c2cncs2)cc1` (single isomer, unassigned) [INSCoV-601G(2), 2-Chloro-N-(2-((4,4-difluorocyclohexyl)amino)-2-oxo-1-(pyrazin-2-yl)ethyl)-N-(4-(thiazol-5-yl)phenyl)acetamide] is 0.27 µM. Then `O=C(NC1CCC(F)(F)CC1)C(c1cnccn1)N(C(=O)CCl)c1ccc(-c2ccns2)cc1` (single isomer, unassigned) [INSCoV-601I(2), 2-chloro-N-(2-((4,4-difluorocyclohexyl)amino)-2-oxo-1-(pyrazin-2-yl)ethyl)-N-(4-(isothiazol-5-yl)phenyl)acetamide], with 0.21 µM; and `CC(C(=O)NC1CCC(F)(F)CC1)(c1cnccn1)N(C(=O)CCl)c1ccc(-c2ccns2)cc1` (single isomer, unassigned) [INSCoV-601N(1), 2-(2-Chloro-N-(4-(isothiazol-5-yl)phenyl)acetamido)-N-(4,4-difluorocyclohexyl)-2-(pyrazin-2-yl)propanamide], with 0.13 µM. Consider `CC(C(=O)NC1CCC(F)(F)CC1)(c1cnccn1)N(C(=O)CCl)c1ccc(-c2ccns2)cc1` (single isomer, unassigned) [INSCoV-601N(2), 2-(2-Chloro-N-(4-(isothiazol-5-yl)phenyl)acetamido)-N-(4,4-difluorocyclohexyl)-2-(pyrazin-2-yl)propanamide], for which the IC50 came to 3.49 µM. Take `CC(C(=O)NC1CCC(F)(F)CC1)(c1cncnc1)N(C(=O)CCl)c1ccc(-c2ccno2)cc1` (single isomer, unassigned) [INSCoV-601P(1B), 2-(2-Chloro-N-(4-(isoxazol-5-yl)phenyl)acetamido)-N-(4,4-difluorocyclohexyl)-2-(pyrimidin-5-yl)propanamide]: the IC50 was 13.7 µM. On to `O=C(N[C@H]1CCC(F)(F)C1)C(c1cncnc1)N(C(=O)CCl)c1ccc(-c2cncs2)cc1` (single isomer, unassigned) [INSCoV-601S(1B)], for which the IC50 is 0.98 µM. In the case of `O=C(NC1CCC(F)(F)CC1)[C@H](c1cncnc1)N(C(=O)[C@H](F)Cl)c1ccc(-c2cncs2)cc1` (single isomer, unassigned) [INSCoV-614(1A), 2-Chloro-N-(2-((4,4-difluorocyclohexyl)amino)-2-oxo-1-(pyrimidin-5-yl)ethyl)-2-fluoro-N-(4-(thiazol-5-yl)phenyl)acetamide], the IC50 is above 25 µM. Then `O=C(NC1CCC(F)(F)CC1)[C@H](c1cncnc1)N(C(=O)[C@H](F)Cl)c1ccc(-c2cncs2)cc1` (single isomer, unassigned) [INSCoV-614(2A), 2-Chloro-N-(2-((4,4-difluorocyclohexyl)amino)-2-oxo-1-(pyrimidin-5-yl)ethyl)-2-fluoro-N-(4-(thiazol-5-yl)phenyl)acetamide], with 6.94 µM; and `O=C(NC1CCC(F)(F)CC1)[C@H](c1cncnc1)N(C(=O)[C@H](F)Cl)c1ccc(-c2cncs2)cc1` (single isomer, unassigned) [INSCoV-614(2B), 2-Chloro-N-(2-((4,4-difluorocyclohexyl)amino)-2-oxo-1-(pyrimidin-5-yl)ethyl)-2-fluoro-N-(4-(thiazol-5-yl)phenyl)acetamide], with 1.7 µM.

For the compound `O=C(NC1CCC(F)(F)CC1)[C@@H](c1cncnc1)N(C(=O)[C@H](F)Cl)c1ccc(-c2ccno2)cc1` (single isomer, unassigned) [INSCoV-614A(1A), 2-Chloro-N-(2-((4,4-difluorocyclohexyl)amino)-2-oxo-1-(pyrimidin-5-yl)ethyl)-2-fluoro-N-(4-(isoxazol-5-yl)phenyl)acetamide], the IC50 came out at 6.74 µM. As for `O=C(NC1CCC(F)(F)CC1)[C@@H](c1cncnc1)N(C(=O)[C@H](F)Cl)c1ccc(-c2ccno2)cc1` (single isomer, unassigned) [INSCoV-614A(1B), 2-Chloro-N-(2-((4,4-difluorocyclohexyl)amino)-2-oxo-1-(pyrimidin-5-yl)ethyl)-2-fluoro-N-(4-(isoxazol-5-yl)phenyl)acetamide], the IC50 came out at 5.05 µM.

(Values after patent publication US20230174488A1 (priority 2020, published 2023).)
